Results taken from PMC11285371 (Journal of medicinal chemistry, 2023).
“And” between values parts separate entries of the source, which are not always exact repeats. Equal values may be shown once. “Also recorded” adds a separate entry of the source.

Assays:
[1] = tested on: drug-tolerant Mtb persisters; type: cell-based, Mycobacterium tuberculosis
[2] = tested on: Cas1 glioblastoma cell line; conditions: cited from earlier work
15 mammalian cell lines = conditions: cited from earlier work
[3] = cited from earlier work
TGFBR1 [4] = target: T1, TGFBR1 (Homo sapiens, UniProt P36897); experiment: TGFBR1 DiscoverX KINOMEscan binding assay
T1 sequence (P36897 34-503): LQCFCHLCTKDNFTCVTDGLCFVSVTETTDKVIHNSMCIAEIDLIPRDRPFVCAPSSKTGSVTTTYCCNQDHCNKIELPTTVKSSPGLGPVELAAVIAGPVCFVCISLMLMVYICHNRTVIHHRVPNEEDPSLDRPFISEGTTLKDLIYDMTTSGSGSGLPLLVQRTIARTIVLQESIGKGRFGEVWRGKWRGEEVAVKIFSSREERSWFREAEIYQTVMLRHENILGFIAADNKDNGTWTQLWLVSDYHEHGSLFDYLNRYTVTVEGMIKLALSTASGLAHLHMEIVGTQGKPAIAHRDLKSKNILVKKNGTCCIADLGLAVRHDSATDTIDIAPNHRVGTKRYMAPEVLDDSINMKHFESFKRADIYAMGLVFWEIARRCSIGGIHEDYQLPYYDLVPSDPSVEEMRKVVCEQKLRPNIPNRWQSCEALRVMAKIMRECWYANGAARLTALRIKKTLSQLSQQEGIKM

[5] = 0.5 h
Mtb H37Rv::luxCDAB = type: cell-based, Mycobacterium tuberculosis
in vivo = conditions: CD1, mouse, po, 10 mg/kg, T1/2
192 human kinases = conditions: 10 μM, K192 NanoBRET panel
TGFBR1 [6] = target: T1, TGFBR1; type: biochemical
[7] = tested on: Mtb H37Rv strain expressing GFP; experiment: microbe, parasite or virus in culture; type: cell-based; conditions: Mycobacterium tuberculosis

Structure (SMILES): Cc1cccc(-c2nc(Nc3ccncc3)c3ccccc3n2)n1 [AQA]
- killing of persisters (cfu, in words) [1]: further reduction of viable bacteria; also recorded: full activity against persisters
- toxicity against Cas1 glioblastoma cell line (in words) [2]: moderate toxicity
- toxicity against mammalian cell lines (in words) (15 mammalian cell lines): minimal toxicity
- acute toxicity (in words) ([3]; 5 mg/kg p.o. in rats): no acute toxicity
- bioavailability (in words) ([3]; 5 mg/kg p.o. in rats): poor
- oral bioavailability (in words) ([3]; rats): modest oral bioavailability

Structure (SMILES): CC[C@@H](CO)NCCN[C@@H](CC)CO [EMB, ethambutol]
- killing of persisters (cfu, in words) [1]: did not increase the level of killing by RIF and INH further

Structure (SMILES): Cc1cccc(-c2nc(Nc3ccc4nc(C)sc4c3)c3ccccc3n2)n1 [compound 7]
- TGFBR1 binding activity (in words) (TGFBR1 [4]): lost activity against TGFBR1
- metabolic stability in mouse liver microsomes (in words) [5]: very low metabolic stability

Structure (SMILES): Cc1cccc(-c2nc(Nc3ccc4c(c3)ncn4C)c3ccccc3n2)n1 [compound 10]
- antibacterial activity against nonreplicating Mtb (in words, relative to AQA) (Mtb H37Rv::luxCDAB): reduced bactericidal activity

Structure (SMILES): Cc1cccc(-c2nc(Nc3ccc4[nH]ncc4c3)c3ccccc3n2)n1 [compound 11]
- metabolic stability in mouse liver microsomes (in words) [5]: very low metabolic stability

Structure (SMILES): Cc1cccc(-c2nc(Nc3ccc4c(cnn4C)c3)c3ccccc3n2)n1 [compound 12]
- metabolic stability in mouse liver microsomes (in words) [5]: very low metabolic stability

Structure (SMILES): Cc1cccc(-c2nc(Nc3ccc4nn[nH]c4c3)c3ccccc3n2)n1 [compound 14]
- antibacterial activity against nonreplicating Mtb (in words, relative to AQA) (Mtb H37Rv::luxCDAB): reduced bactericidal activity

Structure (SMILES): Cc1cccc(-c2nc(Nc3ccc4nn(C)nc4c3)c3ccccc3n2)n1 [compound 16]
- half-life (in vivo): > 3 h

Structure (SMILES): Cc1cccc(-c2nc(Nc3ccc4nnn(C)c4c3)c3ccccc3n2)n1 [compound 17]
- metabolic stability in mouse liver microsomes (in words) [5]: very low metabolic stability

Structure (SMILES): Cc1cccc(-c2nc(Nc3ccc4ccsc4c3)c3ccccc3n2)n1 [compound 22]
- metabolic stability in mouse liver microsomes (in words) [5]: very low metabolic stability

Structure (SMILES): Clc1cccc(-c2nc(Nc3ccncc3)c3ccccc3n2)n1 [compound 25]
- activity in the Mtb assay (in words) (Mtb H37Rv::luxCDAB): retained potent antibacterial activity; also recorded: matched the activity of AQA in the Mtb assay
- metabolic stability in mouse liver microsomes (in words) [5]: comparable

Structure (SMILES): Fc1cccc(-c2nc(Nc3ccncc3)c3ccccc3n2)n1 [compound 26]
- activity in the Mtb assay (in words) (Mtb H37Rv::luxCDAB): reduced activity

Structure (SMILES): FC(F)(F)c1cccc(-c2nc(Nc3ccncc3)c3ccccc3n2)n1 [compound 27]
- activity in the Mtb assay (in words) (Mtb H37Rv::luxCDAB): reduced activity

Structure (SMILES): COc1cccc(-c2nc(Nc3ccncc3)c3ccccc3n2)n1 [compound 28]
- activity in the Mtb assay (in words) (Mtb H37Rv::luxCDAB): greatly reduced activity

Structure (SMILES): c1ccc(-c2nc(Nc3ccncc3)c3ccccc3n2)nc1 [compound 29]
- activity in the Mtb assay (in words) (Mtb H37Rv::luxCDAB): reduced activity
- metabolic stability in mouse liver microsomes (in words) [5]: comparable

Structure (SMILES): c1cncc(-c2nc(Nc3ccncc3)c3ccccc3n2)c1 [compound 30]
- activity in the Mtb assay (in words) (Mtb H37Rv::luxCDAB): inactive

Structure (SMILES): c1ccc2c(Nc3ccncc3)nc(-c3cnccn3)nc2c1 [compound 31]
- activity in the Mtb assay (in words) (Mtb H37Rv::luxCDAB): greatly reduced Mtb activity

Structure (SMILES): COc1cncc(-c2nc(Nc3ccncc3)c3ccccc3n2)n1 [compound 32]
- activity in the Mtb assay (in words) (Mtb H37Rv::luxCDAB): greatly reduced Mtb activity

Structure (SMILES): c1cnc(-c2nc(Nc3ccncc3)c3ccccc3n2)nc1 [compound 33]
- activity in the Mtb assay (in words) (Mtb H37Rv::luxCDAB): greatly reduced Mtb activity

Structure (SMILES): Cc1csc(-c2nc(Nc3ccncc3)c3ccccc3n2)n1 [compound 39]
- activity in the Mtb assay (in words) (Mtb H37Rv::luxCDAB): lost activity against Mtb

Structure (SMILES): COc1ccc2nc(-c3cccc(C)n3)nc(Nc3ccncc3)c2c1 [compound 40]
- activity in the Mtb assay (in words) (Mtb H37Rv::luxCDAB): retained both potent bactericidal activity and TGFBR1 enzyme inhibition at 1 and 10 μM; also recorded: matched the activity of AQA in the Mtb assay
- metabolic stability in mouse liver microsomes (in words) [5]: improved metabolic stability

Structure (SMILES): Cc1cccc(-c2nc(Nc3ccncc3)c3cc(O)ccc3n2)n1 [compound 41]
- activity in the Mtb assay (in words) (Mtb H37Rv::luxCDAB): less active
- metabolic stability in mouse liver microsomes (in words) [5]: improved metabolic stability

Structure (SMILES): COc1ccc2c(Nc3ccncc3)nc(-c3cccc(C)n3)nc2c1 [compound 42]
- activity in the Mtb assay (in words) (Mtb H37Rv::luxCDAB): less active

Structure (SMILES): Cc1cccc(-c2nc(Nc3ccncc3)c3ccn(C)c3n2)n1 [compound 43]
- activity in the Mtb assay (in words) (Mtb H37Rv::luxCDAB): retained potent Mtb activity; also recorded: matched the activity of AQA in the Mtb assay; also recorded: low-micromolar activity against nonreplicating Mtb
- additional human kinases on which the compound was active (192 human kinases): 7/192

Structure (SMILES): Cc1cccc(-c2nc(C)cc(Nc3ccncc3)n2)n1 [compound 44]
- activity in the Mtb assay (in words) (Mtb H37Rv::luxCDAB): retained partial Mtb and TGFBR1 activity
- TGFBR1 enzyme inhibition (in words) (TGFBR1 [6]): retained partial Mtb and TGFBR1 activity

Structure (SMILES): Cc1cccc(-c2cc3ccccc3c(Nc3ccncc3)n2)n1 [compound 45]
- activity in the Mtb assay (in words) (Mtb H37Rv::luxCDAB): weaker activity

Structure (SMILES): Cc1cccc(-c2cc(Nc3ccncc3)c3ccccc3n2)n1 [compound 46]
- activity in the Mtb assay (in words) (Mtb H37Rv::luxCDAB): weaker activity

Structure (SMILES): NNC(=O)c1ccncc1 [isoniazid]
- MIC [7]: 3.6 µM and 0.5 µg/mL
